The values that follow come from patent US20260193238A1, “PHARMACEUTICAL COMPOUNDS AS PARP7 AND/OR PARP1 INHIBITORS” (Duke Street Bio Limited, priority 2022, published 2026).

Usually IC50 stands for the concentration that inhibits the measured activity by half.

PARP1, sequence (P09874 whole entry): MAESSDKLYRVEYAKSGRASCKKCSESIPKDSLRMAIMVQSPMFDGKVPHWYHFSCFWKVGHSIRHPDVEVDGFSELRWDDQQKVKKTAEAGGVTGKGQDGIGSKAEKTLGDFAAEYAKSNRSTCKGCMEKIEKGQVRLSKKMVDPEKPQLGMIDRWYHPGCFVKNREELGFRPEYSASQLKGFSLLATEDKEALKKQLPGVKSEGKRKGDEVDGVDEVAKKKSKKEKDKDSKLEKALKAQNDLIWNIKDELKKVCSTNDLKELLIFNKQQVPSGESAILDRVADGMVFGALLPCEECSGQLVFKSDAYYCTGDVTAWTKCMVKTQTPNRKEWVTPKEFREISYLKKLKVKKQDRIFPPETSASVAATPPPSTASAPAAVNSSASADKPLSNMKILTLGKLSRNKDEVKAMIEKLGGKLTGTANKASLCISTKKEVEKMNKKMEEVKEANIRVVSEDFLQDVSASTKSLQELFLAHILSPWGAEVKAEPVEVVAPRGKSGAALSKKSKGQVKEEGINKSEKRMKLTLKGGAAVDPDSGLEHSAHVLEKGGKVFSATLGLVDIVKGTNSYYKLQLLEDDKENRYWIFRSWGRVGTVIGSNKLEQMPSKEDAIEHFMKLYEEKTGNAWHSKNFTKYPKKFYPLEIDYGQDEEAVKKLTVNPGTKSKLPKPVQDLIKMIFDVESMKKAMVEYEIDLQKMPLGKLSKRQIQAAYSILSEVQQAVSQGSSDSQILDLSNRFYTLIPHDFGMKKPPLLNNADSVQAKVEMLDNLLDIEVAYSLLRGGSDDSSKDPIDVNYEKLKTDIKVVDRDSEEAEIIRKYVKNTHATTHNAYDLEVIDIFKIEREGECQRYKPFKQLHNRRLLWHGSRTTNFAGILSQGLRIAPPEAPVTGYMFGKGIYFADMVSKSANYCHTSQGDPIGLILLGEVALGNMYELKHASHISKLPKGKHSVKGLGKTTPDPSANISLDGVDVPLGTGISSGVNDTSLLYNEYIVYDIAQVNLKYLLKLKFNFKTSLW

The first assay has as its target PARP1 (Homo sapiens, UniProt P09874). The experiment in a line: PARP1 biochemical DELFIA assay (auto-PARylation). To be noted: Table 1.
Procedure: Prior to assay, wells were washed 3×5 min in coating wash buffer.
% data was fitted to a non-linear regression equation (log inhibitor vs response-variable slope 4-parameters) to obtain IC50 values.
`CNC(=O)c1ccc(N2CCN(C(=O)CCN3CCCC(c4cc(C(F)(F)F)c(=O)[nH]n4)C3)CC2)nc1` (single isomer, unassigned) [Compound 28b] came in with a 50% inhibitory concentration (IC50) of 100 to 1000 nM.
Take `O=C(CCN1CCCC(c2cc(C(F)(F)F)c(=O)[nH]n2)C1)N1CCN(c2ncc(C(F)(F)F)s2)CC1` (single isomer, unassigned) [Compound 27b]: the half-inhibitory concentration (IC50) is 10 to 100 nM.
The molecule `CCc1cc(C2CCCN(CCC(=O)N3CCN(c4ncc(C(F)(F)F)cn4)CC3)C2)n[nH]c1=O` (single isomer, unassigned) [Compound 6a, 4-ethyl-6-(1-(3-oxo-3-(4-(5-(trifluoromethyl)pyrimidin-2-yl)piperazin-1-yl)propyl)piperidin-3-yl)pyridazin-3(2H)-one] gave an IC50 of 10 to 100 nM.
“6-(1-(3-oxo-3-(4-(5-(trifluoromethyl)pyrimidin-2-yl)piperazin-1-yl)propyl)azetidin-2-yl)-4-(trifluoromethyl)pyridazin-3(2H)-one [Compound 5rac]” had an IC50 of 10 to 100 nM.
The molecule `O=C(CCN1CCCC1c1cc(C(F)(F)F)c(=O)[nH]n1)N1CCN(c2ncc(C(F)(F)F)cn2)CC1` (single isomer, unassigned) [Compound 18a, 6-(1-(3-oxo-3-(4-(5-(trifluoromethyl)pyrimidin-2-yl)piperazin-1-yl)propyl)pyrrolidin-2-yl)-4-(trifluoromethyl)pyridazin-3(2H)-one] had an IC50 of 10 to 100 nM.
Same read-out and setting: the same measure for `O=C(CCN1CCCC(c2c[nH]c(=O)c(C(F)(F)F)c2)C1)N1CCN(c2ncc(C(F)(F)F)cn2)CC1` (single isomer, unassigned) [Compound 25a]: 10 to 100 nM; for `O=C(CN1CCCC(c2cc(C(F)(F)F)c(=O)[nH]n2)C1)N1CCN(c2ncc(C(F)(F)F)cn2)CC1` (single isomer, unassigned) [Compound 14b]: 100 to 1000 nM.
`O=C(CCN1CCCC(c2cc(C(F)(F)F)c(=O)[nH]n2)C1)N1CCN(c2cnc(C(F)(F)F)cn2)CC1` (racemic) [Compound 30rac] registered an IC50 of 100 to 1000 nM.
On the same count and under the same terms, the same measure for `O=C(CCC1CCN(c2ncc(C(F)(F)F)cn2)CC1)N1CCCC(c2cc(C(F)(F)F)c(=O)[nH]n2)C1` (single isomer, unassigned) [Compound 4b]: 100 to 1000 nM.

Staying with this assay, now noted: Table 1A.
`COC1CC(c2cc(C(F)(F)F)c(=O)[nH]n2)N(CC(=O)N2CCN(c3ncc(C(F)(F)F)cn3)CC2)C1` (single isomer, unassigned) [Compound 138trans2, 6-(4-methoxy-1-(2-oxo-2-(4-(5-(trifluoromethyl)pyrimidin-2-yl)piperazin-1-yl)ethyl)pyrrolidin-2-yl)-4-(trifluoromethyl)pyridazin-3(2H)-one] had an IC50 greater than 10000 nM.
Regarding `N#Cc1cc(C2CCCN2CC(=O)N2CCN(c3nc4ccc(F)cc4o3)CC2)n[nH]c1=O` (single isomer, unassigned) [Compound 111a], the 50% inhibitory concentration (IC50) is 10 to 100 nM.
Molecule `O=C(CN1CCCC1c1cc(C(F)(F)F)c(=O)[nH]n1)N1CC2(C1)CN(c1ncc(C(F)(F)F)cn1)C2` (single isomer, unassigned) [Compound 106b] had an IC50 of 1000 to 10000 nM.
Still for that read-out and setting: then `O=C(CN1CCCCC1c1cc(C(F)(F)F)c(=O)[nH]n1)N1CCN(c2ncc(C(F)(F)F)cn2)CC1` (single isomer, unassigned) [Compound 66b], with greater than 10000 nM; and `O=C(CN1CCCC1c1c[nH]c(=O)c(Cl)c1)N1CCN(c2ncc(C(F)(F)F)cn2)CC1` (single isomer, unassigned) [Compound 78b, 3-chloro-5-(1-(2-oxo-2-(4-(5-(trifluoromethyl)pyrimidin-2-yl)piperazin-1-yl)ethyl)pyrrolidin-2-yl)pyridin-2(1H)-one], with greater than 10000 nM.
`O=C(CN1CCCC1c1cc(C(F)(F)F)c(=O)[nH]n1)N1CCN(c2ncc(F)cn2)CC1` (single isomer, unassigned) [Compound 43a] displayed a 50% inhibitory concentration (IC50) of 10 to 100 nM.
As for `Cn1c(N2CCN(C(=O)CN3CCCC3c3cc(C(F)(F)F)c(=O)[nH]n3)CC2)nc2ccccc21` (single isomer, unassigned) [Compound 97a], the IC50 was in the range of 100 to 1000 nM.
For `N#Cc1ccc2oc(N3CCN(C(=O)CN4CCCC4c4cc(C(F)(F)F)c(=O)[nH]n4)CC3)nc2c1` (single isomer, unassigned) [Compound 100b], the IC50 is 100 to 1000 nM.
Same read-out and setting: then `N#Cc1cc(C2CCCN2CC(=O)N2CCN(c3nc4cc(Cl)ccc4o3)CC2)n[nH]c1=O` (single isomer, unassigned) [Compound 121b], with 1000 to 10000 nM; and `Cc1[nH]c(=O)c(C(F)(F)F)cc1C1CCCN1CC(=O)N1CCN(c2ncc(C(F)(F)F)cn2)CC1` (single isomer, unassigned) [Compound 102a, 6-methyl-5-(1-(2-oxo-2-(4-(5-(trifluoromethyl)pyrimidin-2-yl)piperazin-1-yl)ethyl)pyrrolidin-2-yl)-3-(trifluoromethyl)pyridin-2(1H)-one], with 100 to 1000 nM; and `O=C(CN1CCCC1c1cc(C(F)(F)F)c(=O)[nH]n1)N1CCN(c2nc3ccc(F)cn3n2)CC1` (single isomer, unassigned) [Compound 128a], with no more than 10 nM.
As to `O=C(CN1CCCC1c1cc(C(F)(F)F)c(=O)[nH]n1)N1CCN(c2ncc(Cl)cc2Cl)CC1` (single isomer, unassigned) [Compound 125b], the half-maximal inhibitory concentration (IC50) fell in the range of 1000 to 10000 nM.
As to `N#Cc1ccc(N2CCN(C(=O)CN3CCCC3c3cc(C(F)(F)F)c(=O)[nH]n3)CC2)nc1` (racemic) [Compound 47rac], the half-inhibitory concentration (IC50) lay in the range of 10 to 100 nM.
`O=C(CN1CCCC1c1cc(C(F)(F)F)c(=O)[nH]n1)N1CCN(c2ncc(OC(F)F)cn2)CC1` (single isomer, unassigned) [Compound 118b]: the half-maximal inhibitory concentration (IC50) was 1000 to 10000 nM.
In turn, `O=C(CN1CCCC1c1cc(C(F)(F)F)c(=O)[nH]n1)N1CCN(c2nc3ccc(F)cc3o2)CC1` (single isomer, unassigned) [Compound 95b] had a 50% inhibitory concentration (IC50) of 1000 to 10000 nM.
`O=C(CCN1CC2(c3cc(C(F)(F)F)c(=O)[nH]n3)CC1C2)N1CCN(c2ncc(C(F)(F)F)cn2)CC1` [Compound 103] displayed an IC50 of 100 to 1000 nM.
Turning to `CNC(=O)c1ccc(N2CCN(C(=O)CN3CCOCC3c3cc(C(F)(F)F)c(=O)[nH]n3)CC2)cn1` (single isomer, unassigned) [Compound 90b], the IC50 lay within 1000 to 10000 nM.
As to `Cn1c(N2CCN(C(=O)CN3CCCC3c3cc(C(F)(F)F)c(=O)[nH]n3)CC2)nc2ccc(F)cc21` (single isomer, unassigned) [Compound 119b], the half-inhibitory concentration (IC50) was greater than 10000 nM.
The molecule `O=C(CN1CCCC1c1cc(C(F)(F)F)c(=O)[nH]n1)N1CCN(c2nc3ccc(Cl)cc3o2)CC1` (single isomer, unassigned) [Compound 85a] yielded an IC50 of no more than 10 nM.
For `CNC(=O)c1cnc(N2CCN(C(=O)CN3CCCC3c3cc(C(F)(F)F)c(=O)[nH]n3)CC2)cn1` (single isomer, unassigned) [Compound 54a], the IC50 lay in the range of 100 to 1000 nM.
For the molecule `O=C(CN1CCCC1c1c[nH]c(=O)c(C(F)(F)F)n1)N1CCN(c2ncc(C(F)(F)F)cn2)CC1` (single isomer, unassigned) [Compound 84a, 5-(1-(2-oxo-2-(4-(5-(trifluoromethyl)pyrimidin-2-yl)piperazin-1-yl)ethyl)pyrrolidin-2-yl)-3-(trifluoromethyl)pyrazin-2(1H)-one], the half-maximal inhibitory concentration (IC50) is 1000 to 10000 nM.
Same read-out and setting: the same measure for `O=C(CN1CCCC1c1cc(C(F)(F)F)c(=O)[nH]n1)N1CCN(c2ncc(C(F)(F)F)s2)CC1` (racemic) [Compound 52rac]: no more than 10 nM.
In turn, `CNC(=O)c1ccc(N2CCN(C(=O)CCN3CCC(c4n[nH]c(=O)c5ccccc45)CC3)CC2)cn1` [Compound 48, N-methyl-5-(4-(3-(4-(4-oxo-3,4-dihydrophthalazin-1-yl)piperidin-1-yl)propanoyl)piperazin-1-yl)picolinamide] had a half-maximal inhibitory concentration (IC50) of no more than 10 nM.
`N#Cc1cc(C2CCCN2CC(=O)N2CCN(c3nc4cc(F)ccc4o3)CC2)n[nH]c1=O` (single isomer, unassigned) [Compound 149a] had an IC50 of 10 to 100 nM.
In the case of `CC1(C)CC(c2cc(C(F)(F)F)c(=O)[nH]n2)CN(CCC(=O)N2CCN(c3ncc(C(F)(F)F)cn3)CC2)C1` (single isomer, unassigned) [Compound 87b], the IC50 lay in the range of 10 to 100 nM.
Regarding `N#Cc1ccc(N2CCN(C(=O)CN3CCCC3c3c[nH]c(=O)c(C(F)(F)F)c3)CC2)nc1` (single isomer, unassigned) [Compound 77b], the half-inhibitory concentration (IC50) is 100 to 1000 nM.
Consider `O=C(CN1CCCC1c1cc(C(F)(F)F)c(=O)[nH]n1)N1CCN(c2ccc(OC(F)(F)F)cn2)CC1` (single isomer, unassigned) [Compound 81b], for which the IC50 is 10 to 100 nM.
`CN(c1ncc(C(F)(F)F)cn1)C1CN(C(=O)CN2CCCC2c2cc(C(F)(F)F)c(=O)[nH]n2)C1` (single isomer, unassigned) [Compound 127b] registered an IC50 of 1000 to 10000 nM.
On the same count and under the same terms, then `CC1(C)CC(c2cc(C(F)(F)F)c(=O)[nH]n2)CN(CCC(=O)N2CCN(c3ncc(C(F)(F)F)cn3)CC2)C1` (single isomer, unassigned) [Compound 87a], with 100 to 1000 nM; and `O=C(CN1CCCC1c1c[nH]c(=O)c(C(F)(F)F)c1)N1CCN(c2ncc(Cl)cn2)CC1` (single isomer, unassigned) [Compound 74a], with 10 to 100 nM.
For `N#Cc1[nH]c(=O)c(C(F)(F)F)cc1C1CCCN1CC(=O)N1CCN(c2ncc(C(F)(F)F)cn2)CC1` (racemic) [Compound 115rac], the IC50 is greater than 10000 nM.
Turning to `O=C(CN1CCCC1c1cc(C(F)(F)F)c(=O)[nH]n1)N1CCN(c2nc3ccccn3n2)CC1` (single isomer, unassigned) [Compound 117a], the concentration for half-maximal inhibition (IC50) is no more than 10 nM.
Same read-out and setting: the same measure for `N#Cc1cc(C2CCCN2CC(=O)N2CCN(c3ncc(C(F)(F)F)cn3)CC2)n[nH]c1=O` (single isomer, unassigned) [Compound 98b, 3-oxo-6-(1-(2-oxo-2-(4-(5-(trifluoromethyl)pyrimidin-2-yl)piperazin-1-yl)ethyl)pyrrolidin-2-yl)-2,3-dihydropyridazine-4-carbonitrile]: 1000 to 10000 nM; for `N#Cc1ccc(N2CCN(C(=O)CN3CCCC3c3cc(C(F)(F)F)c(=O)[nH]n3)CC2)cc1` (single isomer, unassigned) [Compound 71b]: 10 to 100 nM.
